Measured values published in ChEMBL document CHEMBL4177712, “AMP and adenosine are both ligands for adenosine 2B receptor signaling” (Bioorg Med Chem Lett, 2018).
Active and inactive are the calls of the source. The rule behind the calls is not given here.

Assays:
[1] = molecular target: T1, Adenosine receptor A2b (Homo sapiens) (UniProt P29275); assay: Agonist activity at human A2B receptor expressed in CHO cells assessed as induction of calcium mobilization by Fluo-4 dye based fluorescence assay; type: functional, cell-based
T1 sequence (whole entry): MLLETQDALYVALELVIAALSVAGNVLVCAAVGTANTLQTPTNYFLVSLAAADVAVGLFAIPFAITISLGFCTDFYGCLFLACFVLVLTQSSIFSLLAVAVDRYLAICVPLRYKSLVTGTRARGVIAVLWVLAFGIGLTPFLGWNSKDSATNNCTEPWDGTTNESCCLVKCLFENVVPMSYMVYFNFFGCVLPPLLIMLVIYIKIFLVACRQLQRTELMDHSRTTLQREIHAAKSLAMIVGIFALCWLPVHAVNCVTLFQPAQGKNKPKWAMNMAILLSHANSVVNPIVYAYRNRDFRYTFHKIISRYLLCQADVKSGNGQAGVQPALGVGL

[2] = molecular target: T1, Adenosine receptor A2b (Homo sapiens); assay: Agonist activity at human A2B receptor expressed in CHOK1 cells expressing ADORA2B-CRE-bla assessed as induction of cAMP accumulation by FRET assay; type: functional, cell-based

Nc1ncnc2c1ncn2[C@H]1O[C@H](COP(O)(O)=S)[C@@H](O)[C@H]1O
Activity [1]: Dose-dependent effect | Activity [2]: inactive

Nc1ncnc2c1ncn2[C@@H]1O[C@H](CO)[C@@H](O)[C@H]1O
Activity [1]: Active
